Test results published in US20110144159A1, “ETHER BENZYLIDENE PIPERIDINE ARYL CARBOXAMIDE COMPOUNDS USEFUL AS FAAH INHIBITORS” (Pfizer Inc, priority 2008, published 2011).

Target: T1, Human FAAH (Homo sapiens, UniProt O00519)
T1 construct: made in house
T1 sequence (O00519 32-579 limits assumed): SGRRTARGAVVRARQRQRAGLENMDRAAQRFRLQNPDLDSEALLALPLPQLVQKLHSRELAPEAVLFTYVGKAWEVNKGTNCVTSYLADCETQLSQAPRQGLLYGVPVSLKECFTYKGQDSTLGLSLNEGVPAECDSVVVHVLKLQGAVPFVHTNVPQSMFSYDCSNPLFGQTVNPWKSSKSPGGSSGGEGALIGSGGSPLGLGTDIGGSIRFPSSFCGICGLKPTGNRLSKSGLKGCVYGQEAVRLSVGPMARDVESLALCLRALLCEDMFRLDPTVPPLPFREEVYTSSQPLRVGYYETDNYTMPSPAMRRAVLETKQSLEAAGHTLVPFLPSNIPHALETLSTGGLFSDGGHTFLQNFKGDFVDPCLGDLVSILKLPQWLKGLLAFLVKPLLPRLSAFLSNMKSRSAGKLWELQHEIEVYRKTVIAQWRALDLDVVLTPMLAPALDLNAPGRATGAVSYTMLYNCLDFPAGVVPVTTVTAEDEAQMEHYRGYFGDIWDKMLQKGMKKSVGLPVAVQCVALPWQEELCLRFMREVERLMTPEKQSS
Assay: FAAH assay (glutamate dehydrogenase-coupled, oleamide substrate, absorbance at 340 nm)
Format: biochemical
Details: irreversible inhibition potency
Procedure: A FAAH assay may be carried out in 384-well clear polystyrene plates in a total volume of 50 μl per well. All percents are by volume. To each well was placed the reaction mixture (40 μl) containing 1-4 nM FAAH, 50 mM NaPi, pH 7.4, 3 mM α-ketoglutarate, 0.15 mM NADH, 7.5 U/ml glutamate dehydrogenase, 2 mM ADP, 1 mM EDTA, and 0.1% Triton X-100 (The concentration shown for each component was the final concentration in the assay). To this mixture was added 5 μl of a compound of Examples 1 to 20 at various concentrations prepared in 50% DMSO (or 5 μl 50% DMSO for controls). This was immediately followed by the addition of 5 μl oleamide (500 μM) dissolved in 75% EtOH/25% DMSO and the reaction mixture was mixed for 1.5 min. The final concentrations of DMSO and EtOH in the assay are each 7.5%. The reactions was then incubated at 30° C. and the absorbance at 340 nm was collected over a period of 90 min with readings taken in 30-second intervals using SpectraMax Plus^384 Microplate Spectrophotometer (Molecular Devices, Sunnyvale, Calif.). Human FAAH used in the assay was prepared as described in the patent application WO 2006/067613. The purity of the enzyme used was greater than 98% based on an analysis by SDS-polyacrylamide gel electrophoresis followed by Coomassie Blue staining.
Initial velocity data (V) is obtained from the slopes of the initial progressive curves. They are plotted as a function of substrate concentration and fit to the Michaelis-Menten equation (1) using Prism (GraphPad Software, Inc., San Diego, Calif.) software to obtain Km and Vmax values.
To obtain potencies of irreversible inhibitors, progressive curves consistent with first order inhibition kinetics (two-step irreversible inhibition mechanism) are fit to equation (2) by nonlinear least squares regressions to determine kobs values at each inhibitor concentration, where [P]t is the absorbance at time t, V0 is a constant related to the steady state rate of the uninhibited reaction, and kobs is the first order rate constant for enzyme inactivation. The inhibitor dissociation constant (Ki) and the first order rate
constant of enzyme inactivation at infinite inhibitor concentration (kinact) are then obtained by fitting the kobs vs. [I] curves to equation (3).

Compound	hFAAH KInact/K
CCC(COC)Oc1cccc(C=C2CCN(C(=O)Nc3cccnn3)CC2)c1 (stereo not drawn) [Example 98, 4-{3-[1-(methoxymethyl)propoxy]benzylidene}-N-pyridazin-3-ylpiperidine-1-carboxamide]	276 M⁻¹ s⁻¹
N-pyridazin-3-yl-4-[3-(pyridin-2-ylmethoxy)benzylidene]piperidine-1-carboxamide [Example 46]	353 M⁻¹ s⁻¹
CC1CCCC(Oc2cccc(C=C3CCN(C(=O)Nc4cccnn4)CC3)c2)C1 (stereo not drawn) [Example 38, 4-{3-[(3-methylcyclohexyl)oxy]benzylidene}-N-pyridazin-3-ylpiperidine-1-carboxamide]	1090 M⁻¹ s⁻¹
O=C(Nc1cccnn1)N1CCC(=Cc2cccc(OCc3nccs3)c2)CC1 [Example 68, N-pyridazin-3-yl-4-[3-(1,3-thiazol-2-ylmethoxy)benzylidene]piperidine-1-carboxamide]	452 M⁻¹ s⁻¹
CC(COc1cccc(C=C2CCN(C(=O)Nc3cccnn3)CC2)c1)CC(F)(F)F (stereo not drawn) [Example 99, N-pyridazin-3-yl-4-[3-(4,4,4-trifluoro-2-methylbutoxy)benzylidene]piperidine-1-carboxamide]	10896 M⁻¹ s⁻¹
O=C(Nc1cccnn1)N1CCC(=Cc2cccc(OCCc3cccc(F)c3)c2)CC1 [Example 89, 4-{3-[2-(3-fluorophenyl)ethoxy]benzylidene}-N-pyridazin-3-ylpiperidine-1-carboxamide]	25980 M⁻¹ s⁻¹
CC(C)OCCOc1cccc(C=C2CCN(C(=O)Nc3cccnn3)CC2)c1 [Example 47, 4-[3-(2-isopropoxyethoxy)benzylidene]-N-pyridazin-3-ylpiperidine-1-carboxamide]	11900 M⁻¹ s⁻¹
O=C(Nc1cccnn1)N1CCC(=Cc2cccc(OC3CCC(C(F)(F)F)CC3)c2)CC1 (stereo not drawn) [Example 97, N-pyridazin-3-yl-4-(3-{[4-(trifluoromethyl)cyclohexyl]oxy}benzylidene)piperidine-1-carboxamide]	3238 M⁻¹ s⁻¹
CCCC(C)Oc1cccc(C=C2CCN(C(=O)Nc3cccnc3)CC2)c1 (stereo not drawn) [Example 34, 4-[3-(1-methylbutoxy)benzylidene]-N-pyridin-3-ylpiperidine-1-carboxamide]	1810 M⁻¹ s⁻¹
O=C(Nc1cccnn1)N1CCC(=Cc2cccc(OCCc3ccc(F)cc3)c2)CC1 [Example 92, 4-{3-[2-(4-fluorophenyl)ethoxy]benzylidene}-N-pyridazin-3-ylpiperidine-1-carboxamide]	5205 M⁻¹ s⁻¹
CC(C)Oc1cccc(C=C2CCN(C(=O)Nc3cccnn3)CC2)c1 [Example 40, 4-(3-isopropoxybenzylidene)-N-pyridazin-3-ylpiperidine-1-carboxamide]	2350 M⁻¹ s⁻¹
CC(C)(F)CCOc1cccc(C=C2CCN(C(=O)Nc3cccnn3)CC2)c1 [Example 95, 4-[3-(3-fluoro-3-methylbutoxy)benzylidene]-N-pyridazin-3-ylpiperidine-1-carboxamide]	3869 M⁻¹ s⁻¹
COC(C)(C)CCOc1cccc(C=C2CCN(C(=O)Nc3cccnn3)CC2)c1 [Example 49, 4-[3-(3-methoxy-3-methylbutoxy)benzylidene]-N-pyridazin-3-ylpiperidine-1-carboxamide]	1290 M⁻¹ s⁻¹
Cc1ccc(COc2cccc(C=C3CCN(C(=O)Nc4cccnn4)CC3)c2)cn1 [Example 74, 4-{3-[(6-methylpyridin-3-yl)methoxy]benzylidene}-N-pyridazin-3-ylpiperidine-1-carboxamide]	188 M⁻¹ s⁻¹
O=C(Nc1cccnn1)N1CCC(=Cc2cccc(OC3CCOCC3)c2)CC1 [Example 44, N-pyridazin-3-yl-4-[3-(tetrahydro-2H-pyran-4-yloxy)benzylidene]piperidine-1-carboxamide]	563 M⁻¹ s⁻¹
O=C(Nc1cccnn1)N1CCC(=Cc2cccc(OC3CCC(F)(F)CC3)c2)CC1 [Example 106, 4-{3-[(4,4-difluorocyclohexyl)oxy]benzylidene}-N-pyridazin-3-ylpiperidine-1-carboxamide]	16400 M⁻¹ s⁻¹
CC1(COc2cccc(C=C3CCN(C(=O)Nc4cccnn4)CC3)c2)CC1 [Example 93, 4-{3-[(1-methylcyclopropyl)methoxy]benzylidene}-N-pyridazin-3-ylpiperidine-1-carboxamide]	2090 M⁻¹ s⁻¹
CC1(C)CCC(Oc2cccc(C=C3CCN(C(=O)Nc4cccnn4)CC3)c2)CC1 [Example 81, 4-{3-[(4,4-dimethylcyclohexyl)oxy]benzylidene}-N-pyridazin-3-ylpiperidine-1-carboxamide]	3744 M⁻¹ s⁻¹
O=C(Nc1cccnc1)N1CCC(=Cc2cccc(OC3CCCCC3)c2)CC1 [Example 7, 4-[3-(cyclohexyloxy)benzylidene]-N-pyridin-3-ylpiperidine-1-carboxamide]	1220 M⁻¹ s⁻¹
CCC(CC)Oc1cccc(C=C2CCN(C(=O)Nc3cccnc3)CC2)c1 [Example 15, 4-[3-(1-ethylpropoxy)benzylidene]-N-pyridin-3-ylpiperidine-1-carboxamide]	216 M⁻¹ s⁻¹
4-{3-[(2-methylpyridin-3-yl)methoxy]benzylidene}-N-pyridazin-3-ylpiperidine-1-carboxamide [Example 59]	328 M⁻¹ s⁻¹
O=C(Nc1cccnn1)N1CCC(=Cc2cccc(OCCc3cccnc3)c2)CC1 [Example 84, N-pyridazin-3-yl-4-[3-(2-pyridin-3-ylethoxy)benzylidene]piperidine-1-carboxamide]	10747 M⁻¹ s⁻¹
CCCC(CC)Oc1cccc(C=C2CCN(C(=O)Nc3cccnc3)CC2)c1 (stereo not drawn) [Example 42, 4-[3-(1-ethylbutoxy)benzylidene]-N-pyridin-3-ylpiperidine-1-carboxamide]	551 M⁻¹ s⁻¹
CC1CCC(COc2cccc(C=C3CCN(C(=O)Nc4cccnn4)CC3)c2)CC1 (stereo not drawn) [Example 101, 4-{3-[(4-methylcyclohexyl)methoxy]benzylidene}-N-pyridazin-3-ylpiperidine-1-carboxamide]	3281 M⁻¹ s⁻¹
CCOc1cccc(C=C2CCN(C(=O)Nc3cccnc3)CC2)c1 [Example 1, 4-(3-ethoxybenzylidene)-N-pyridin-3-ylpiperidine-1-carboxamide]	2020 M⁻¹ s⁻¹
O=C(Nc1cccnn1)N1CCC(=Cc2cccc(OCC3CCCO3)c2)CC1 (stereo not drawn) [Example 45, N-pyridazin-3-yl-4-[3-(tetrahydrofuran-2-ylmethoxy)benzylidene]piperidine-1-carboxamide]	573 M⁻¹ s⁻¹
CCC(C)Oc1cccc(C=C2CCN(C(=O)Nc3cccnn3)CC2)c1 (stereo not drawn) [Example 21, 4-(3-sec-butoxybenzylidene)-N-pyridazin-3-ylpiperidine-1-carboxamide]	973 M⁻¹ s⁻¹
CC(Cc1ccccc1)Oc1cccc(C=C2CCN(C(=O)Nc3cccnn3)CC2)c1 (stereo not drawn) [Example 91, 4-[3-(1-methyl-2-phenylethoxy)benzylidene]-N-pyridazin-3-ylpiperidine-1-carboxamide]	7398 M⁻¹ s⁻¹
O=C(Nc1cccnn1)N1CCC(=Cc2ccc3c(c2)OCCO3)CC1 [Example 4, 4-(2,3-dihydro-1,4-benzodioxin-6-ylmethylene)-N-pyridazin-3-ylpiperidine-1-carboxamide]	2770 M⁻¹ s⁻¹
CC1CCCC(Oc2cccc(C=C3CCN(C(=O)Nc4cccnc4)CC3)c2)C1 (stereo not drawn) [Example 32, 4-{3-[(3-methylcyclohexyl)oxy]benzylidene}-N-pyridin-3-ylpiperidine-1-carboxamide]	712 M⁻¹ s⁻¹
